In patent US20240130368A1, “HERBICIDAL COMPOSITION” (Nippon Soda Co., Ltd., priority 2021, published 2024):

Columns and labels:
Type in all cases: in vivo
[1] = system: Abutilon theophrasti; assay: Test Example 3: seeds on filter paper moistened with chemical solution, herbicidal effect visually evaluated; conditions: Compound (I-3) alone, 6 days after the treatment
Description: The compound (I) or compound (II) was prepared into a 5% emulsion using DMF (containing 1.5% Tween) and diluted with water to a prescribed dosage concentration. Commercially available preparations were dissolved in water and adjusted to a prescribed dosage concentration.
Seeds were soaked in 0.6% sodium hypochlorite for a predetermined time for surface sterilization and washed with water for use (seed disinfection). Seeds of Ambrosia artemisiifolia were used for the test.
Filter paper was placed on a cup (diameter: 10 cm, height: 4 cm) with a lid and moistened with 8 ml of chemical solution, and seeds were sown thereon, and after covering with a lid, grown in a constant temperature room.
The herbicidal effects were visually evaluated, 6 days after the treatment, as the herbicidal effect (%), by comparing with a state of an untreated group using a total of 21 scores of withering index from 0 to 20 (0: mortality rate equivalent to that of the untreated group, 20: mortality rate of 100%).
(§1) In addition, the expected values of the herbicidal effects were calculated from the herbicidal effects in a case where the compound (I) alone was applied and the herbicidal effects in a case where the compound (II) alone was applied by using the Colby's formula (Colby, S. R., Calculating synergistic and antagonistic responses of herbicide combinations, Weeds, 15, pp. 20-22 (1967)).
M indicates an herbicidal effect (%) in the application of the compound (I) alone, N indicates an herbicidal effect (%) in the application of the compound (II) alone, and E indicates an expected value (%) of the herbicidal effect in the combined application of the compound (T) and the compound (TT). When the actual measured value (%) of the herbicidal effect in the combined application of the compound (I) and the compound (II) is greater than the expected value E, it can be regarded that the combined application of the compound (I) and the compound (II) has a synergistic effect.
The herbicidal effects were evaluated by the same method as in Test Example 1 except that the seeds used in the test were changed from Ambrosia artemisiifolia to Abutilon theophrasti.

[2] = system: Brachiaria platyphylla; assay: Test Example 4: foliar spraying treatment, herbicidal effect from above ground weight; conditions: Compound (I-3) alone, 63 gai/ha, 3 weeks after spraying
Description: (§2) POA allylphenyl ether (4.1 parts by weight), POE-POP glycol (1 part by weight), POE sorbitan laurate (0.8 parts by weight), glycerin (2.6 parts by weight), dimethylformamide (65.9 parts by weight), N-methylpyrrolidone (5.1 parts by weight), cyclohexanone (15.4 parts by weight), and aromatic hydrocarbons (5.1 parts by weight) were mixed and dissolved to prepare an emulsion. The active ingredient (4 mg) of the composition of the present invention was dissolved in this emulsion (100 μL) to prepare a test emulsion. It should be noted that POA means “polyoxyalkylene”, POE means “polyoxyethylene”, and POP means “polyoxypropylene”.
(§3) A 300 cm^2 pot was filled with soil, and seeds of Zea mays, Setaria faberi, Sorghum halepense, Brachiaria platyphylla, Amaranthus palmeri, Senna obtusifolia and Ipomoea hederacea were sown into the surface layer, and then grown in a greenhouse after being covered lightly with soil. When each plant grew to a plant height of 7 to 11 cm, it was used for the test. The test emulsion was diluted so that the amount of the active ingredient became a predetermined amount, and sprayed on the foliage with a small sprayer at a spray water volume of 250 L per hectare.
(§4) For the evaluation of the herbicidal effects, the above ground weights of weeds in the untreated and treated areas were measured for each weed 3 weeks after spraying treatment, and the herbicidal effect (%) was calculated by the following calculation formula.
as §1
(§5) M indicates an herbicidal effect (%) in the application of the compound (1) alone, N indicates an herbicidal effect (%) in the application of the compound (II) alone, and E indicates an expected value (%) of the herbicidal effect in the combined application of the compound (I) and the compound (II). When the actual measured value (%) of the herbicidal effect in the combined application of the compound (I) and the compound (II) is greater than the expected value E, it can be regarded that the combined application of the compound (1) and the compound (II) has a synergistic effect.
(§6) Herbicidal effect (%)=[(above ground weight of weeds in untreated area)−(above ground weight of weeds in treated area)/(above ground weight of weeds in untreated area)]×100
(§7) The following grass species were used as grass species to be controlled [scientific names]. • Giant foxtail [Setaria faberi] • Johnson grass [Sorghum halepense] • Broadleaf signalgrass [Brachiaria platyphylla] • Palmer amaranth [Amaranthus palmeri] • Sicklepod [Senna obtusifolia] • Morning glory [Ipomoea hederacea]

[3] = system: Sorghum halepense; assay: as above; conditions: Compound (I-3) alone, 63 gai/ha, 3 weeks after spraying
Description: as §2, §3, §4, §1, §5, §6, §7

[4] = system: Amaranthus palmeri; assay: as above; conditions: Compound (I-3) alone, 63 gai/ha, 3 weeks after spraying
Description: as §2, §3, §4, §1, §5, §6, §7

[5] = system: Senna obtusifolia; assay: as above; conditions: Compound (I-3) alone, 63 gai/ha, 3 weeks after spraying
Description: as §2, §3, §4, §1, §5, §6, §7

[6] = system: Setaria faberi; assay: as above; conditions: Compound (I-3) alone, 63 gai/ha, 3 weeks after spraying
Description: as §2, §3, §4, §1, §5, §6, §7

[7] = system: Ipomoea hederacea; assay: as above; conditions: Compound (I-3) alone, 63 gai/ha, 3 weeks after spraying
Description: as §2, §3, §4, §1, §5, §6, §7

[8] = system: Zea mays; assay: Test Example 6: foliar spraying treatment, herbicidal effect from above ground weight (useful plant); conditions: Compound (I-3) alone
Description: as §2
A test emulsion was prepared in the same manner as in Test Example 4.
A 300 cm^2 pot was filled with soil, and seeds of Zea mays and Ipomoea hederacea were sown into the surface layer, and then grown in a greenhouse after being covered lightly with soil. When each plant grew to a plant height of 7 to 9 cm, the above test emulsion was diluted so that the amount of the active ingredient became a predetermined amount, and sprayed on the foliage with a small sprayer at a spray water volume of 250 L per hectare.
Test Examples 6-1 and 6-3 were evaluated in the same manner as in Test Example 4.
The expected values of the herbicidal effects in Test Example 6-2 were calculated using the following Colby's formula (Colby, S. R., Calculating synergistic and antagonistic responses of herbicide combinations, Weeds, 15, pp. 20-22 (1967)).
X indicates an herbicidal effect (%) by applying the compound (1) alone, Y and Z each indicate an herbicidal effect (%) by applying one of the two types of the compounds (II) alone, and E indicates an expected value (%) of the herbicidal effect by applying combinations of the compound (I) and two types of the compounds (II).
When the actual measured value (%) of the herbicidal effect by the combined application of the compound (I) and two types of the compounds (11) is greater than the expected value E, it can be regarded that the combined application of the compound (1) and two types of the compounds (II) has a synergistic effect.
The following plants were used as useful plants [scientific names]. • Corn for animal feed [Zea mays]

[9] = system: Zea mays; assay: Test Example 4: foliar spraying treatment, herbicidal effect from above ground weight (useful plant); conditions: Compound (I-3) alone, 63 gai/ha, 3 weeks after spraying
Description: as §2, §3, §4
In addition, the expected values of the herbicidal effects were calculated from the herbicidal effects in a case where the compound (I) alone was applied and the herbicidal effects in a case where the compound (II) alone was applied by using the Colby's formula (Colby, S. R., Calculating synergistic and antagonistic responses of herbicide combinations, Weeds, 15, pp. 20-22 (1967)). […]

[10] = system: Digitaria ciliaris; assay: Test Example 2: seeds on filter paper moistened with chemical solution, herbicidal effect visually evaluated; conditions: Compound (I-3) alone, 0.2 ppm, 6 days after the treatment

With `COC12OC1(c1ccc(C(F)(F)F)c3c1CCCS3(=O)=O)C=NN(C)C2=O` (stereo not drawn) [Compound (I-3), 1-methoxy-3-methyl-6-(1,1-dioxido-8-(trifluoromethyl)thiochroman-5-yl)-7-oxa-3,4-diazabicyclo[4.1.0]hept-4-en-2-one] the Herbicidal effect ([1]; 0.2 ppm) was 75%, the Herbicidal effect ([1]; 3.1 ppm) was 75% and the “Actual measured value of herbicidal effect” value (from here on “Actual measured value”) [2] was 80%. For the same molecule, the “Actual measured value” value [3] was 80%, the “Actual measured value” value [4] was 100% and the “Actual measured value” value [5] was 60%. For the same molecule, the “Actual measured value” value [6] was 80%, the “Actual measured value” value [7] was 70% and the “Actual measured value” value ([8]; 94 gai/ha) was 0%. For the same molecule, the “Actual measured value” value ([8]; 125 gai/ha) was 0%, the “Actual measured value” value [9] was 0% and the Herbicidal effect [10] was 75%.
